Data published in article PMC9917023, “Stabilization of Monomeric Tau Protein by All D-Enantiomeric Peptide Ligands as Therapeutic Strategy for Alzheimer’s Disease and Other Tauopathies” (International Journal of Molecular Sciences, 2023).
pKd: −log10 of the molar value. Non-standard residues stand in square brackets, D forms with d. Residues, ends and D or L forms follow the SMILES beside them.

Experiments:
[1] = Stability in human liver microsomes; format: in vitro ADME; conditions: 6 mg/mL protein, 1.3 mM NADPH with regenerating system, pH 7.4, after 24 h, read-out: still unmetabolized in human liver microsomes
Procedure: (§1) Figure 12 Stability assay of TF2D-5 and TF2D-5a using different simulated human body fluids. (A) Stability of compounds in simulated gastric fluid (SGF). The simulated gastric fluid consisted of 2 mg/mL sodium chloride, 3.2 mg/mL pepsin, and 80 mM HCl; pH 1. (B) Stability of TF2D-5 and TF2D-5a in simulated intestinal fluid (SIF). Simulated intestinal fluid consisted of 6.8 mg/mL potassium dihydrogen phosphate, 10 mg/mL pancreas powder, and 15.4 mM NaOH; pH 6.8. (C) Stability of TF2D-5 and TF2D-5a in human blood plasma. K3EDTA human blood plasma was purchased from BioTrend. (D) Stability of TF2D-5 and TF2D-5a in human liver microsomes. Human liver microsomes consisted of 6 mg/mL protein (containing Cytochrome P450 (CYP) enzymes), 75 mM sucrose, 1.3 mM NADPH, 3.3 mM D-glucose-6-phosphat, 0.2 u/mL D-glucose-6-phosphat dehydrogenase, 3.3 mM magnesium chloride, and 100 mM potassium phosphate; pH 7.4.
(§2) The stability of the compounds was tested according to Elfgen et al. and Schemmert et al. Exceptions included the extraction of plasma, simulated gastric fluid (SGF), and simulated intestinal fluid (SIF) samples. These were obtained by the addition of 12.5 µL 0.35 M ZnSO4, followed by vortexing, the addition of 12.5 µL 0.5 M HCl, additional vortexing, and centrifugation at 14,000× g for 10 min at 4 °C.

[2] = Stability in human blood plasma; format: in vitro ADME; conditions: K3EDTA human blood plasma, after 48 h; read-out: still detectable in human blood plasma
Procedure: as §1, §2

[3] = target: T1, R3 domain of tau (Homo sapiens, UniProt P10636); experiment: SPR measurement (Biacore 8K, single cycle); format: binding; conditions: single cycle kinetics, peptide immobilized on CM5 chip, R3 (304-336) 3.125-100 nM as analyte, PBS pH 7.4, 0.05% Tween20, 1:1 fit
T1 construct: purchased CASLO ApS, Lyngby, Denmark; host or cells: synthetic peptide
T1 sequence (P10636 622-652 limits assumed): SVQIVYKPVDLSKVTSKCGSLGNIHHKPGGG
Procedure: Figure 8 SPR measurements of TF2D-5 and TF2D-5a with monomeric full-length tau 441 and tau repeat region 3. […] The concentration of tau during the measurement ranged from 3.125 nM to 25 nM. […] Tau was used in concentrations ranging from 31.25 nM to 500 nM. SPR measurements of A and B were recorded on a T200 Biacore instrument, the corresponding compound was immobilized on a CM5 chip from Cytiva while monomeric tau served as analyte. Tests were performed with TBS pH 7.4, 0.05% Tween20 and 10 µM DTT as running buffer. Fit calculation was completed with the internal evaluation software of the T200 Biacore. A 1:1 model was used for both fits. […] The concentrations for the single cycle measurement ranged from 3.125 nM to 100 nM. Measurements of C were performed on a Biacore 8K using a CM5 chip from Cytiva. TF2D-5a was immobilized on the chip while the R3 region of tau was used as analyte. PBS pH 7.4 with 0.05% Tween20 as used as running buffer. Fit calculation was performed using the Biacore insight evaluation software and a 1:1 model. […]
Measurements of TF2D-5a against the R3 domain of tau were performed on a Biacore 8K (GE Healthcare, Uppsala, Sweden) using a single cycle experiment. […] The data were analyzed using the Biacore insight evaluation software 3.0.12.15655 using a 1:1 fit.

Row | Compound | remaining at 24 h [1] | remaining at 48 h [2] | pKd [3]
1 | CC[C@@H](C)[C@@H](NC(=O)[C@@H](Cc1c[nH]cn1)NC(=O)CNC(=O)CNC(=O)[C@H]1CCCN1C(=O)[C@H](NC(=O)[C@@H](CCCCN)NC(=O)[C@@H](Cc1ccccc1)NC(=O)[C@@H](CC(C)C)NC(=O)[C@H](NC(=O)[C@@H](CCC(N)=O)NC(=O)[C@@H](Cc1ccc(O)cc1)NC(=O)CNC(=O)CNC(=O)[C@H](N)CC(=O)O)[C@H](C)CC)[C@H](C)CC)C(=O)N[C@H](Cc1c[nH]cn1)C(N)=O [TF2D-5] (H-[dD]GG[dY][dQ][dI][dL][dF][dK][dI][dP]GG[dH][dI][dH]-NH2) | 3.7% | 97.4% | 
2 | CC[C@@H](C)[C@@H](NC(=O)[C@@H](Cc1c[nH]cn1)NC(=O)CNC(=O)CNC(=O)[C@H]1CCCN1C(=O)[C@H](NC(=O)[C@@H](CCCCN)NC(=O)[C@@H](Cc1ccccc1)NC(=O)[C@@H](CC(C)C)NC(=O)[C@H](NC(=O)[C@@H](CCC(N)=O)NC(=O)[C@@H](Cc1ccc(O)cc1)NC(=O)CNC(=O)CNC(=O)[C@H](N)CC(=O)O)[C@H](C)CC)[C@H](C)CC)C(=O)N[C@H](Cc1c[nH]cn1)C(=O)N[C@H](CCCNC(=N)N)C(=O)N[C@H](CCCNC(=N)N)C(=O)N[C@H](CCCNC(=N)N)C(=O)N[C@H](CCCNC(=N)N)C(=O)N[C@H](CCCNC(=N)N)C(N)=O [TF2D-5a] (H-[dD]GG[dY][dQ][dI][dL][dF][dK][dI][dP]GG[dH][dI][dH][dR][dR][dR][dR][dR]-NH2) | 13.2% | 86.5% | 11.15
